Laboratory results published in ChEMBL document CHEMBL1201862, “PubChem BioAssay data set” (2004).
Calls of active or inactive are those of the source.

Tests used:
cells = settings: HEK293
[1] = toxicity toward HepG2 liver cells – cell-based, plate reader, cherry-pick, antagonist series, cytotoxicity control, dose response (AID 743416); format: functional
[2] = blockers of bursicon-stimulated LGR2 cAMP reporter – cell-based, HEK293, CRE-luciferase reporter, cherry pick, set 2, dose response (AID 743343); format: functional;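 note: transfected cells were stimulated with diluted bursicon conditioned medium after compound addition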
[3] = A549 cell cytotoxicity, dose response, cytotoxicity control, plate reader, cherry-pick, antagonist series (AID 743412); format: functional, cell-based
[4] = viability loss in HEK293 cells – cell-based, plate reader, cherry-picked samples, cytotoxicity control, dose response (AID 743446); format: functional
[5] = blockade of melanocortin 4 receptor signaling – cell-based, plate reader, cherry pick, counter-screen for LGR2 antagonist project, dose response (AID 743444); format: functional;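 note: transfected HEK 293 cells stimulated with alpha-MSH peptide; potency of inhibitors of the alpha-MSH evoked signal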
[6] = molecular target: Voltage-dependent T-type calcium channel subunit alpha-1H (Homo sapiens, UniProt O95180); format: functional;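 note: channel activity triggered by adding a high calcium stimulation buffer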
Paired box protein Pax-8 = Paired box protein Pax-8 (Homo sapiens, UniProt Q06710); experiment: PAX8 transcriptional activity inhibition in RMG-I – RMG-I cells, luciferase, cherry-pick, dose response (AID 687027); format: functional, cell-based;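 note: luciferase reporter driven by Pax8 target thyroperoxidase promoter measured by SteadyGlo luminescence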
Paired box protein Pax-8, sequence (Q06710 whole entry): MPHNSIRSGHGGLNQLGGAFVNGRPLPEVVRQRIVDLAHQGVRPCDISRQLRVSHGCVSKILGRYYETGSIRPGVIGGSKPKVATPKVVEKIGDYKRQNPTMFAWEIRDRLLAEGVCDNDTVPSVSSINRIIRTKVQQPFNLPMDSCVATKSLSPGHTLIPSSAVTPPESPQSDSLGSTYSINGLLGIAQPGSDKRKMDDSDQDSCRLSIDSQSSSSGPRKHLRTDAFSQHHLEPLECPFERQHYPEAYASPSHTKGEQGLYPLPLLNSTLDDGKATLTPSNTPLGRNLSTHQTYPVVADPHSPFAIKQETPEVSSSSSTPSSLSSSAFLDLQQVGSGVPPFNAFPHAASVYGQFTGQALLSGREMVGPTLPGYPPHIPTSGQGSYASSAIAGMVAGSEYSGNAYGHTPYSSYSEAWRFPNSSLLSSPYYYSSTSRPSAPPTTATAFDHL

[7] = viability of PTEN-deleted HCT116 cells – cell-based, HCT116 PTEN knockout, dose response (AID 1047); format: functional;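 note: HCT116 colon tumor cells with PTEN knocked out; cells exposed to compound for 60 hours before readout; potency for loss of cell viability measured by luminescence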
BJ [8] = experiment: BJ-TERT fibroblast viability loss – cell-based, RAS-independent, luminescence, dose response (AID 1933); format: functional; settings: Homo sapiens
[9] = luciferase reporter signal suppression in cells – H4 neuroglioma cells, luminescence, dose response (AID 1990); format: functional, cell-based
[10] = viability loss of HPDE-C7K cells – cell-based, fluorescence, HTS, primary screen (AID 431); format: functional; settings: Homo sapiens
HEK293 = experiment: EBV LMP1 TES2 canonical NF-kB signalling blockers – cell-based, HEK293, luciferase, cherry-pick, dose response (AID 588343); format: functional; settings: Homo sapiens
[11] = Luminescence Cell-Based Dose Response HTS to Identify Inhibitors of 5'UTR Stem-Loop Driven Prion Protein mRNA Translation in H4 Neuroglioblastoma Cells. [Related pubchem assays: 1827 (Project Summary), 1813 (Primary HTS)]; format: functional
[12] = general cell-killing toxicity readout – plate reader, dry powder samples, cytotoxicity control for PAX8 inhibitor project, dose response (AID 743021); format: functional, cell-based
[13] = HIV-1 AD8 envelope cell-cell fusion blockers – cherry-pick, dose response (AID 652062); format: functional, cell-based;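 note: luciferase signal from cell-cell fusion driven by HIV-1 clade B AD8 Env; potency is for inhibitors of fusion seen as a drop in luminescence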
[14] = molecular target: T1, Heat shock factor protein 1 (Mus musculus, UniProt P38532); experiment: decrease of HSF1-responsive luciferase luminescence – cell-based, NIH3T3, dose retest, confirmation (AID 2382); format: functional;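 note: NIH3T3 fibroblasts with HSF1-driven luciferase reporter stressed by proteasome inhibitor MG132; luminescence from HSF1-driven luciferase expression after 8 hours of MG132 stress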
T1 sequence (P38532 whole entry): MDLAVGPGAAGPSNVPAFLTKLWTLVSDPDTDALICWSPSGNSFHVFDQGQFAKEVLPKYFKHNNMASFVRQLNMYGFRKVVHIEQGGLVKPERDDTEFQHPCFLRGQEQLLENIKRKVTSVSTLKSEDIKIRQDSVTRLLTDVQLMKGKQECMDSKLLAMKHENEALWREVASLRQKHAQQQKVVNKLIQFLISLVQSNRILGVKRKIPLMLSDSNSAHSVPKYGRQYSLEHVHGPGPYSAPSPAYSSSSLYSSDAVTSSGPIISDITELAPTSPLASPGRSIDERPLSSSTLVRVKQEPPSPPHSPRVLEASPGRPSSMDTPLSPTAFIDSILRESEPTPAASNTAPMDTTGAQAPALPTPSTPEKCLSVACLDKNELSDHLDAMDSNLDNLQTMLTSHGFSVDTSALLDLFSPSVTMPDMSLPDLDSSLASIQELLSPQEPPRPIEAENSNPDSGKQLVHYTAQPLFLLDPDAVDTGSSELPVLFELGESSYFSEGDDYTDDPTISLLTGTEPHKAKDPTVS

[15] = blockers of HIV-1 envelope-mediated cell-cell fusion – cherry-pick, dose response (AID 652057); format: functional, cell-based
[16] = viability of HCT116 lacking mutant beta-catenin – cell-based, human colon tumor, dose response (AID 1045); format: functional;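 note: HCT116 colon tumor cells with beta catenin knocked out; cells exposed to compound for 60 hours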
[17] = HPDE-C7 pancreatic duct cell viability loss – fluorescence, HTS (AID 430); format: functional, cell-based; settings: Homo sapiens
BJ [18] = experiment: cells; format: functional, cell-based; settings: Homo sapiens
BJ [19] = experiment: BJ-TERT-LT-ST fibroblast viability loss – cell-based, RAS-independent, luminescence, dose response (AID 1935); format: functional; settings: Homo sapiens;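 note: BJ fibroblasts immortalized with TERT plus LT and ST oncogenes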
[20] = blockers of HIV-1 ZM109 envelope-driven cell-cell fusion – HeLa effector, CEM target cells, luciferase, cherry-pick, dose response (AID 652058); format: functional, cell-based;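 note: luciferase signal from HIV-1 Env mediated cell-cell fusion of effector and target cells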
BJ [21] = experiment: growth inhibition of engineered Ras-driven BJ cells – cell-based, alamar blue fluorescence, cherrypicked samples, dose response (AID 2631); format: functional; settings: Homo sapiens;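 note: confirmatory dose-response assay in RAS-dependent BJ fibroblasts engineered with TERT, LT and ST, with cytotoxicity read by fluorescence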
[22] = off-target signal loss in HeLa-CEM21 co-culture – HeLa F-luc CTL cells, cherry-picked, counter-screen for HIV-1 Env fusion inhibitor project, dose response (AID 652040); format: functional, cell-based;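 note: potency for signal decrease marking cytotoxic or nonspecific inhibition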
[23] = alpha-synuclein stem-loop luciferase translation blockers – H4 neuroglioma cells, luminescence, confirmation (AID 1988); format: functional, cell-based
[24] = DRD fibroblast viability loss – cell-based, non-viral oncogenic, luminescence, dose response (AID 1934); format: functional; settings: Homo sapiens
[25] = viability loss in CEM21 cells – cell-based, CellTiter-Glo luminescence, cherry-picked, cytotoxicity control for viral fusion inhibitor project, dose response (AID 652042); format: functional;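 note: potency for signal decrease meaning cytotoxicity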
Protein RecA = molecular target: T2, Protein RecA (Mycobacterium tuberculosis, UniProt P9WHJ3); experiment: Fluorescence Cell-Free Homogeneous Dose Retest to Identify Inhibitors of RecA-Intein Splicing Activity. [Related pubchem assays (depositor defined):AID2097, AID2223, AID489010, AID492950]; format: functional
T2 sequence (P9WHJ3 whole entry): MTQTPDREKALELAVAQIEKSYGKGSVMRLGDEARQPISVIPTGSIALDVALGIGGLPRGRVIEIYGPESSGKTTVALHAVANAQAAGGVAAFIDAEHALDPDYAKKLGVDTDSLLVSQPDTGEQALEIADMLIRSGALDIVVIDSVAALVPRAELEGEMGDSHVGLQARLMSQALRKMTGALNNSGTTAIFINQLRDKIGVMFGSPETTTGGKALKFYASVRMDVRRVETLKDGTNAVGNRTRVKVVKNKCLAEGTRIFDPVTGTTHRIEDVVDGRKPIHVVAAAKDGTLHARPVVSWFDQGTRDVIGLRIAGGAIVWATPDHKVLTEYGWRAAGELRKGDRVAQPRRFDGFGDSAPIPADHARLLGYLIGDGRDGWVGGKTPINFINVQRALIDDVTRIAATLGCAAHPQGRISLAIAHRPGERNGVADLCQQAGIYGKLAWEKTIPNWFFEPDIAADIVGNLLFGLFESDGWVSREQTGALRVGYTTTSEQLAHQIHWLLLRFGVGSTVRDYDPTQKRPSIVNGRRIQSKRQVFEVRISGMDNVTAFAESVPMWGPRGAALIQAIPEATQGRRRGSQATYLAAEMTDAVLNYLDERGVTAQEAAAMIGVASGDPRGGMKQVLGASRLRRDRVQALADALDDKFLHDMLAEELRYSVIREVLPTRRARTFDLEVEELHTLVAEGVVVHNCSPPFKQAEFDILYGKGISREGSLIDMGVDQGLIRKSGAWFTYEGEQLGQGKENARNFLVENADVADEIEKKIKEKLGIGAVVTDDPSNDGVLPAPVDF

Genome polyprotein = Genome polyprotein (dengue virus type 2, UniProt P29990); experiment: flavivirus cap methylation enzyme inhibition – biochemical, confirmation dose response, primary screen (AID 588689); format: functional
Genome polyprotein, sequence (P29990 2492-3391 limits assumed): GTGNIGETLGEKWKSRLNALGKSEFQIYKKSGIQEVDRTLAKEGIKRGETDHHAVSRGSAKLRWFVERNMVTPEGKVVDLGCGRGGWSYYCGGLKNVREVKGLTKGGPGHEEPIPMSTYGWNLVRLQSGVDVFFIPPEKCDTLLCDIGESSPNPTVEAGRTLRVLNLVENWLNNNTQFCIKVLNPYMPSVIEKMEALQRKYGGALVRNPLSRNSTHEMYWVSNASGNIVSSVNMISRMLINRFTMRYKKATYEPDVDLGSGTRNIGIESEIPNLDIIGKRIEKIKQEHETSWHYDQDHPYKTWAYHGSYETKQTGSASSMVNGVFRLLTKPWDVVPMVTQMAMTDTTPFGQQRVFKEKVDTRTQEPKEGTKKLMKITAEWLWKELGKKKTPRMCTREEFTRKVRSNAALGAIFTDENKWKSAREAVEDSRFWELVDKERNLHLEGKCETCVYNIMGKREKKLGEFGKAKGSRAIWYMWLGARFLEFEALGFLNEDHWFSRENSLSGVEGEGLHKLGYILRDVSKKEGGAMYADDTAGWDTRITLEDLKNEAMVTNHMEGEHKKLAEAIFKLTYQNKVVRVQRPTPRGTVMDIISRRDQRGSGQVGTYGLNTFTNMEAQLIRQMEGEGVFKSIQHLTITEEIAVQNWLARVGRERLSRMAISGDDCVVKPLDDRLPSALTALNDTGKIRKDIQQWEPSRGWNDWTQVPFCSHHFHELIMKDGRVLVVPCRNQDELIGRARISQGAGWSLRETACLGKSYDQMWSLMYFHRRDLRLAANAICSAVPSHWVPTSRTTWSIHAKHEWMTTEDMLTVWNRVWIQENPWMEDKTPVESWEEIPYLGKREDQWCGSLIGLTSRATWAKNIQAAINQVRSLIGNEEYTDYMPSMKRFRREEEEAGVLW

[26] = molecular target: T3, Replicative DNA helicase DnaB (Mycobacterium tuberculosis, UniProt P9WMR3); experiment: DnaB intein splicing inhibitors, dose response, biochemical, cell-free fluorescence (AID 449749); format: functional
T3 sequence (P9WMR3 whole entry): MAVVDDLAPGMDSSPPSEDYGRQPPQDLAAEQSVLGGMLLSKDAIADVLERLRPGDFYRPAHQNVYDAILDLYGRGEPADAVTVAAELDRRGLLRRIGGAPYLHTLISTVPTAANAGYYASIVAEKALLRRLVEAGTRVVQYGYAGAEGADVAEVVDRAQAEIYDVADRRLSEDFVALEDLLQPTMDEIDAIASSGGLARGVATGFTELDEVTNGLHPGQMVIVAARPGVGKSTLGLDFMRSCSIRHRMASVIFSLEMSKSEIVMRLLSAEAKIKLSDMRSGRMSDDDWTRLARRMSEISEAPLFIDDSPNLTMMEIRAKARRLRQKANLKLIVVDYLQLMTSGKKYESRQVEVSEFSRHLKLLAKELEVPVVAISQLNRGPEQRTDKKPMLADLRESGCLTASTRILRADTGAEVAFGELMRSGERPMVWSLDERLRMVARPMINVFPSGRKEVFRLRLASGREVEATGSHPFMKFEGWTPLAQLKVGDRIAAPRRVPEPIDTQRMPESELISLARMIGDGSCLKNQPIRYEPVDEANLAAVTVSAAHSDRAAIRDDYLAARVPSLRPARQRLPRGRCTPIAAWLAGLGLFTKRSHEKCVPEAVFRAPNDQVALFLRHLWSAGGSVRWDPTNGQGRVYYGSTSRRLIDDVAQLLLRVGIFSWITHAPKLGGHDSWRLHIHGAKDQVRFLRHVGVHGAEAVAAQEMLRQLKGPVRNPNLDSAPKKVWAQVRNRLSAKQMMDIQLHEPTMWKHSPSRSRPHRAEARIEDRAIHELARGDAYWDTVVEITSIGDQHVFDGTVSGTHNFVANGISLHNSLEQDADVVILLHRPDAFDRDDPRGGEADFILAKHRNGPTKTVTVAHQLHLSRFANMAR

[27] = molecular target: Tyrosyl-DNA phosphodiesterase 2 (Homo sapiens, UniProt O95551); experiment: potency against TDP2 phosphodiesterase activity – biochemical, epi absorbance, IC50, dose response (AID 743297)
[28] = molecular target: Metabotropic glutamate receptor 3 (Rattus norvegicus, UniProt P31422); experiment: inhibition of rat mGlu3 glutamate signaling – HEK/GIRK cells, thallium flux, dose response (AID 651839); format: functional
Metabotropic glutamate receptor 3, sequence (P31422 whole entry): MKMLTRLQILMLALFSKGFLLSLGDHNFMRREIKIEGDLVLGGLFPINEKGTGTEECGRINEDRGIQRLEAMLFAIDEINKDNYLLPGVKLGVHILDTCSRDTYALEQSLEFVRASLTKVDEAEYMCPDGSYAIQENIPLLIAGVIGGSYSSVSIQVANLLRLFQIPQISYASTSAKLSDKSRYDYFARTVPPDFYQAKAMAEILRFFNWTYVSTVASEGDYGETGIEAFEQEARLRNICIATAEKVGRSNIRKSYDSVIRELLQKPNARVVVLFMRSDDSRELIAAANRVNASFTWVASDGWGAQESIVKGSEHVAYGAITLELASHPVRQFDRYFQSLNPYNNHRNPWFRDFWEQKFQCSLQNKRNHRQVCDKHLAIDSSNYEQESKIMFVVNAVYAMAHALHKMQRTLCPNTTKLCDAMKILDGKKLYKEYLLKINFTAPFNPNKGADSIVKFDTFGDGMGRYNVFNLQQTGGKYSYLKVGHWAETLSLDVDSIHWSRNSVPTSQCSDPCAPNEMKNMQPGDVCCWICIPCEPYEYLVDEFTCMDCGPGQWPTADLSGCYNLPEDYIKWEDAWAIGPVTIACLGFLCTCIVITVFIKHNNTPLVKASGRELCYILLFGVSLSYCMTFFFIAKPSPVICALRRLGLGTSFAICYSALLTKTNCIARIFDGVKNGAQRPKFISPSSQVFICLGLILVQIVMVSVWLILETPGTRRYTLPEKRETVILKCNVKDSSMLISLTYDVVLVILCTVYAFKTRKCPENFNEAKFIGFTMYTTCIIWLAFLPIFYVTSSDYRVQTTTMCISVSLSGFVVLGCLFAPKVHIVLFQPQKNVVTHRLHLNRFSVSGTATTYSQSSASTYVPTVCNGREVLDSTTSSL

[29] = molecular target: NAD-dependent protein deacylase sirtuin-5, mitochondrial (Homo sapiens, UniProt Q9NXA8); experiment: blockers of sirtuin-5 peptide desuccinylation – biochemical, fluorescence imaging, cherry-pick, set 6, dose response (AID 720597)
NAD-dependent protein deacylase sirtuin-5, mitochondrial, sequence (Q9NXA8 whole entry): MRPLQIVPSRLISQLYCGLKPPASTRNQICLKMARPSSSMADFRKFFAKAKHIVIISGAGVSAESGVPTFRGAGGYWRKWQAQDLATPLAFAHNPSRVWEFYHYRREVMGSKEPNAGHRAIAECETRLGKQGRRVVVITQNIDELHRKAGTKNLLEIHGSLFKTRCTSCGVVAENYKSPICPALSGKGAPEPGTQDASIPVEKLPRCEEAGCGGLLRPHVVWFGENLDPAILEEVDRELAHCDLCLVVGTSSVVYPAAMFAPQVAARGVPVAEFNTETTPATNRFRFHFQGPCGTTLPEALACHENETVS

[30] = molecular target: 1-phosphatidylinositol 4,5-bisphosphate phosphodiesterase beta-3 (Homo sapiens, UniProt Q01970); experiment: Fluorescence-based biochemical high throughput dose response assay to identify inhibitors of phospholipase C isozymes (PLC-B3).
1-phosphatidylinositol 4,5-bisphosphate phosphodiesterase beta-3, sequence (Q01970 whole entry): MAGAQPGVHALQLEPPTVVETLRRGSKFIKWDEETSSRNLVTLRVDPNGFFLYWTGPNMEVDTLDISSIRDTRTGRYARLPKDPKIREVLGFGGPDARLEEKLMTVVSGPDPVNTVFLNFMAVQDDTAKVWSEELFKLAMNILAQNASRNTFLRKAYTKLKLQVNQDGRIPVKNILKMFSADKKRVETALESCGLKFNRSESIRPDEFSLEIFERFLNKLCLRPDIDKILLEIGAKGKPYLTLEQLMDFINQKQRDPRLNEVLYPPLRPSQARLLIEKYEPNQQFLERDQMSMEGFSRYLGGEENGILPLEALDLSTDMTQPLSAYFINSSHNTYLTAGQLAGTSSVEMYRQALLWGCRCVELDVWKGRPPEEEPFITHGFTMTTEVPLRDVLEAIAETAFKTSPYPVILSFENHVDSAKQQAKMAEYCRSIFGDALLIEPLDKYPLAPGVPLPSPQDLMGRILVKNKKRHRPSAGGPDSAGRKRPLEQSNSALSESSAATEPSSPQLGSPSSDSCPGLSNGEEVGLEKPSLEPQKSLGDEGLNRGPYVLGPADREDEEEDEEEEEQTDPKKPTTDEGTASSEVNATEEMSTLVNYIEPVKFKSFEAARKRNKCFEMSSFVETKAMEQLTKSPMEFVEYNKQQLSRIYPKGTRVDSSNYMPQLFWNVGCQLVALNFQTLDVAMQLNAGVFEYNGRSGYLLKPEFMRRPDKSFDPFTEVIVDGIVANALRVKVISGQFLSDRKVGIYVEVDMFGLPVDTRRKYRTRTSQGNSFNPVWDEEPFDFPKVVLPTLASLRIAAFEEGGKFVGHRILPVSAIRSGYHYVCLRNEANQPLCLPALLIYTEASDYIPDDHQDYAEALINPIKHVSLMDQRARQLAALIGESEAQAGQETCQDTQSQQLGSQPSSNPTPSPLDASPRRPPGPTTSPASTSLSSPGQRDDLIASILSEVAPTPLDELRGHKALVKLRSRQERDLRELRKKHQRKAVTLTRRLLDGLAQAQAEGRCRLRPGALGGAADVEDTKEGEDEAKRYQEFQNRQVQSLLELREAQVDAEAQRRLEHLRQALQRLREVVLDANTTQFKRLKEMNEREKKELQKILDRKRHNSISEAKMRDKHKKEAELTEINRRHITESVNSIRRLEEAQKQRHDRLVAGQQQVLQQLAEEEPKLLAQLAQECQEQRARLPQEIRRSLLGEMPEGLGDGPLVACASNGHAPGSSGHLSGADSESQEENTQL

[31] = molecular target: 1-phosphatidylinositol 4,5-bisphosphate phosphodiesterase gamma-1 (Homo sapiens, UniProt P19174); experiment: Counterscreen for inhibitors of phospholipase C isozymes (PLC-B3): Fluorescence-based biochemical high throughput dose response assay to identify inhibitors of phospholipase C isozymes (PLC-gamma1).
1-phosphatidylinositol 4,5-bisphosphate phosphodiesterase gamma-1, sequence (P19174 whole entry): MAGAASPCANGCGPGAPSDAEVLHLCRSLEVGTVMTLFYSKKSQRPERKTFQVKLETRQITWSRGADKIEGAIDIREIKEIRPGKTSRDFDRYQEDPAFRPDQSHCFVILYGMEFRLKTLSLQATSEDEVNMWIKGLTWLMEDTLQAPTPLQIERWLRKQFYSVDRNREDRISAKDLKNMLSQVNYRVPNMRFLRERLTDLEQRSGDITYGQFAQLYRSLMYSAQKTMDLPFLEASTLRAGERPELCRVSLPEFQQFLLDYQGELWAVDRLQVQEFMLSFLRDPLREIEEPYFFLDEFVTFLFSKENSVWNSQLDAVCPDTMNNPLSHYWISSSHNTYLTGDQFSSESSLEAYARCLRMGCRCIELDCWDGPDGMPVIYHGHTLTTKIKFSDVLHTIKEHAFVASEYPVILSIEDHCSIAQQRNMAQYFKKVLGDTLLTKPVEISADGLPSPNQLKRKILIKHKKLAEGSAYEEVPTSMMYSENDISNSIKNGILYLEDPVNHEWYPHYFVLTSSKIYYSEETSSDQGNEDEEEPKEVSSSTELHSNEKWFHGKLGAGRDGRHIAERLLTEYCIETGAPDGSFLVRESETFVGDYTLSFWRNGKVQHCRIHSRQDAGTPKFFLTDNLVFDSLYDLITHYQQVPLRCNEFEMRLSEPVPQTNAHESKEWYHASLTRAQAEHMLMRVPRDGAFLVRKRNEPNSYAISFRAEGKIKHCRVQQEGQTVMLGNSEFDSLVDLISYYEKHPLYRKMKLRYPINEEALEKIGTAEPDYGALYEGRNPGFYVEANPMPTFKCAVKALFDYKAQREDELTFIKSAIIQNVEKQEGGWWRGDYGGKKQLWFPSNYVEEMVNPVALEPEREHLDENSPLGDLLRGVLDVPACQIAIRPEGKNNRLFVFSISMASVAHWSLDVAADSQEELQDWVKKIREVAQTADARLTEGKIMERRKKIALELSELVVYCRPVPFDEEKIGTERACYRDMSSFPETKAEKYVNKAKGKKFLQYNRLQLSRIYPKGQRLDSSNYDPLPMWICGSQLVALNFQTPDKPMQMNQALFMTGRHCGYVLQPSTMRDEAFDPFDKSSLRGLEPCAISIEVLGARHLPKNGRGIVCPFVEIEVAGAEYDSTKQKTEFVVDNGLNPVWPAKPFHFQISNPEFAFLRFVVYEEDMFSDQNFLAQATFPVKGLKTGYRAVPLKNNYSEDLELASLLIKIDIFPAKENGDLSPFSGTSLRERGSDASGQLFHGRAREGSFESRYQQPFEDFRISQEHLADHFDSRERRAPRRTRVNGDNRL

In the case of CCN1C(=O)c2cccc3c(S(=O)(=O)N(C)C)ccc1c23, the AC50 (cells) was > 52000 nM (inactive).
For COc1cccc(Nc2nc(C(N)Cc3ccc(F)cc3)cs2)n1 (configuration not stated), the AC50 [1] was 13900 nM (active), the AC50 [2] was 28500 nM (active) and the AC50 [3] was 14500 nM (active). The AC50 [4] was 16800 nM (active) and the AC50 [5] was 31100 nM (active).
With O=S(=O)(c1ccc2c(c1)C(=NO)c1cc(S(=O)(=O)N3CCCCC3)ccc1-2)N1CCCCC1 the EC50 [6] was 12300 nM (active), the AC50 (Paired box protein Pax-8) was 871 nM (active) and the EC50 [7] was 412 nM (active). For the same compound, the EC50 (BJ [8]) was 1020 nM (inconclusive), the EC50 [9] was 6010 nM (active) and the EC50 [10] was 390 nM (active). For the same compound, the AC50 (HEK293) was 2990 nM (active), the EC50 [11] was 7790 nM (active) and the AC50 [12] was 1500 nM (active). The AC50 [13] was 879 nM (active), the EC50 [14] was 749 nM (active) and the AC50 [15] was 730 nM (active). For the same compound, the EC50 [16] was 352 nM (active), the EC50 [17] was 300 nM (active) and the EC50 (BJ [18]) was 2710 nM (inconclusive). For the same compound, the EC50 (BJ [19]) was 2650 nM (inconclusive), the AC50 [20] was 794 nM (active) and the EC50 (BJ [21]) was 2970 nM (active). For the same compound, the AC50 [22] was 767 nM (active), the EC50 [23] was 3800 nM (active) and the EC50 [24] was 2680 nM (inconclusive). For the same compound, the AC50 [25] was 287 nM (active).
For COc1ccc(C(c2c(C)[nH]n(-c3ccccc3)c2=O)c2c(C)[nH]n(-c3ccccc3)c2=O)cc1OC, the EC50 (Protein RecA) was 688 nM (active), the IC50 (Genome polyprotein) was 35900 nM (active) and the AC50 [26] was 1220 nM (active). The IC50 [27] was 95200 nM (inactive).
For COc1ccc(C#Cc2ccc(C(=O)N3CCCC(OC)C3)cc2)cc1 (configuration not stated), the IC50 [28] was 7150 nM (active).
In the case of C[C@H]1CN([C@@H](C)CO)C(=O)c2cccc(NC(=O)NC3CCCCC3)c2O[C@@H]1CN(C)Cc1ccc(C(=O)O)cc1, the AC50 [29] was 22800 nM (active).
In the case of C[C@@H]1CN([C@@H](C)CO)C(=O)c2cc(NS(=O)(=O)c3ccccc3)ccc2O[C@@H]1CN(C)CC1CCCCC1, the AC50 [29] was > 30000 nM (inactive).
For Cc1ccc(OCCn2c(CCNC(=O)C3CCCCCC3)nc3ccccc32)cc1, the IC50 [30] was > 123000 nM (inactive) and the IC50 [31] was > 123000 nM (inactive).
